# “Also recorded” adds a separate entry of the source. Where two headings read alike, the source gives them in different places.
# Assays:
# cisplatin-induced emesis [1] = conditions: cisplatin 5 mg/kg i.p.; The Compound 10 mg/kg or ondansetron 1 mg/kg i.p. three times a day
# NK1 recognition sites [2] = biological target: T1, NK1 recognition sites (Mesocricetus auratus, UniProt A0A1U7QPR6); assay: NK1 binding, hamster brain
# T1 construct: NK1 recognition sites present in human cell line, guinea pig, dog, ferret, and hamster brain; from tissue; host or cells: hamster brain
# [3] = Side effect liability: sedation or ataxia in the hamster; assay type: in vivo; conditions: up to 100 mg/kg s.c.
# cisplatin-induced emesis [4] = assay: Cisplatin-induced acute emesis in the ferret; assay type: in vivo
# Description: Adult male albino Fitch ferrets (>1 kg weight) were individually housed with free access to food (SDS Diet "C", Special Diet Services Ltd, Essex, U.K.). Thirty minutes prior to the commencement of the studies, the ferrets were presented with 100 g of commercially available tinned cat food.
# [5] = test system: vehicle-induced emetic response; assay: PEG-200 vehicle-induced emetic response in the ferret; assay type: in vivo; conditions: 10 mg/kg; PEG-200 1 mL/kg i.p.
# [6] = Blood pressure and heart rate of anaesthetized guinea-pigs; assay type: in vivo, guinea-pig; conditions: 0.1-1.0 mg/kg i.v.
# pancreatic amylase = assay: Secretion of pancreatic amylase in the rat; assay type: in vivo; conditions: 0.01-10 mg/kg i.v.
# [7] = Side effect liability: sedation or ataxia in the mouse; assay type: in vivo; conditions: up to 100 mg/kg s.c.
# [8] = Pharmacokinetics and oral bioavailability in the rat; assay type: in vivo; conditions: plasma; for Cmax: fasted male Wistar rats; for AUC(0-inf): read-out: AUC zero to infinite time; for half-life: read-out: t1/2 terminal elimination half-life (converted); for clearance: read-out: Cl total systemic clearance; for Vd: read-out: Vd steady-state volume of distribution
# Protocol: 0.5% methyl cellulose, and nanosystem vehicle, The drug was administered either PO by gavage or IV via jugular vein. Blood samples were drawn from jugular vein cannulac into syringes containing heparin before dosing and at different times up to 24 hours postdose. Plasma was harvested by centrifugation and stored at -20° C. until analysis. Plasma samples were analyzed for The Compound using a validated liquid chromatographic method.
# [9] = test system: apomorphine-induced emesis; assay: Apomorphine-induced emesis in the ferret; conditions: Mustela putorius, 1 h, read-out: MED, apomorphine-induced emesis
# [10] = test system: copper sulphate-induced emesis; assay: Copper sulphate-induced emesis in the ferret; conditions: Mustela putorius, 2 h, read-out: MED, copper sulphate-induced emesis
# NK1 recognition sites [11] = biological target: NK1 recognition sites (Mustela putorius, UniProt M3YAE5); assay: NK1 binding, ferret
# [12] = Brain penetration in the rat using HPLC assay; assay type: in vivo; conditions: for Tmax: read-out: time of highest brain concentration (converted);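 on % Dose in Brain: IV 4.5 mg/kg via tail vein or PO 21.4 mg/kg by gavage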;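 on amount in brain: IV 4.5 mg/kg via tail vein or PO 21.4 mg/kg by gavage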
# Protocol: Three rats were used for each time point. Prior to blood and brain sampling, rats were anesthetized with ether. Blood samples were collected by cardiac puncture. After transcardiac perfusion with normal saline, whole brains were collected. Plasma and brain samples were analyzed using liquid chromatographic florescence detection methods. […] Total amount in brain at these times was respectively 2.5 and 0.04 μg (Tables 2 and 13). Brain to plasma concentration ratio after IV administration was highest (1.8) at 15 minutes and then decreased to a steady value approximately 0.5 at later postdose times (Table 2).
# Chain of NK1 recognition sites (Mustela putorius, UniProt M3YAE5) (M3YAE5 1-407): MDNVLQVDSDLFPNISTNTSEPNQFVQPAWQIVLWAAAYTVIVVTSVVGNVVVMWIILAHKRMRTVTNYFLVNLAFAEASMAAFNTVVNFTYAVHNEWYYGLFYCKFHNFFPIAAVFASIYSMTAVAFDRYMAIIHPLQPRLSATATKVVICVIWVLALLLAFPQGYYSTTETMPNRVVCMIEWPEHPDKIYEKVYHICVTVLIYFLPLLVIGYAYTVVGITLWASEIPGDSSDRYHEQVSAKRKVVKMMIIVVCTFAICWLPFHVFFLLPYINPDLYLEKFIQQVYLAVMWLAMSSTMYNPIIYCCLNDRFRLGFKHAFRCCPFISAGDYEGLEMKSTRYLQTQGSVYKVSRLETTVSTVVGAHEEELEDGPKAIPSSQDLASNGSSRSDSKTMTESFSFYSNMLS
# T1 sequence (A0A1U7QPR6 1-407): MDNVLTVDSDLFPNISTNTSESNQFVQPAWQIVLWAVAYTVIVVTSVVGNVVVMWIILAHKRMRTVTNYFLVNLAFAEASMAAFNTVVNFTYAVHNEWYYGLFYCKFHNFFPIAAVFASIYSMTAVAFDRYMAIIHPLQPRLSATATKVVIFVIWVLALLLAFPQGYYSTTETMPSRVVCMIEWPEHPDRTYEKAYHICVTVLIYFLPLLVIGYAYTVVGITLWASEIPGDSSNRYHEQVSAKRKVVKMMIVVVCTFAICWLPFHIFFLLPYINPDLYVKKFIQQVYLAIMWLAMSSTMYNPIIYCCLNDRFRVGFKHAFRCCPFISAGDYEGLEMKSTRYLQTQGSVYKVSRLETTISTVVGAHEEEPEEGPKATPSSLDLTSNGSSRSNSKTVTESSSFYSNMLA
smiles,measurement,setting,value
"C[C@H](NC(=O)[C@@](C)(Cc1c[nH]c2ccccc12)NC(=O)OCc1cc2ccccc2o1)c1ccccc1 [The Compound, [R,S]-[2-(1H-Indol-3-yl)-1-methyl-1-(1-phenyl-ethylcarbamoyl)-ethyl]-carbamic acid benzofuran-2-ylmethyl ester]",delayed emesis during the 3 days (3-72 hours),cisplatin-induced emesis [1],completely blocked
same,retching and vomiting during the first 3 hours of the emetic response (acute),cisplatin-induced emesis [1],completely blocked
same,affinity to NK1 recognition sites,NK1 recognition sites [2],nanamolar affinity
same,ataxia,[3],failed to induce
same,sedation,[3],failed to induce
same,antagonism of the emetic response,"cisplatin-induced emesis [4]; 30 mg/kg i.p., cisplatin 10 mg/kg i.p.",complete antagonism; also recorded: completely antagonized
same,minimal effective dose,"cisplatin-induced emesis [4]; Mustela putorius, i.p. in PEG-200, 3-30 mg/kg, 1 hour before cisplatin 10 mg/kg i.p., 4-hour observation, read-out: minimum effective dose, frequency of vomiting and retching",3 mg/kg
same,antagonism of vehicle-induced emetic response,[5],completely antagonized
same,blood pressure,[6],failed to affect
same,heart rate,[6],failed to affect
same,stimulation of secretion of pancreatic amylase,pancreatic amylase,failed
same,ataxia,[7],failed to induce
same,sedation,[7],failed to induce
same,Tmax,[8]; MC suspension PO 3.7 mg/kg,3.5 h
same,Cmax,[8]; MC suspension PO 3.7 mg/kg,15.1 ng/mL
same,bioavailability,"[8]; MC suspension PO 3.7 mg/kg, read-out: % F absolute oral bioavailability",4.1%
same,AUC(0-inf),[8]; MC suspension PO 3.7 mg/kg,107 ng·h/mL
same,half-life,[8]; MC suspension PO 3.7 mg/kg,2.8 h
same,AUC(0-inf),[8]; NANOSUSPENSION IV 4.6 mg/kg,2790 ng·h/mL
same,clearance,[8]; NANOSUSPENSION IV 4.6 mg/kg,27.8 mL/min/kg
same,Vd,[8]; NANOSUSPENSION IV 4.6 mg/kg,3.7 L/kg
same,half-life,[8]; NANOSUSPENSION IV 4.6 mg/kg,4.8 h
same,Tmax,[8]; NANOSUSPENSION PO 18.4 mg/kg,2.3 h
same,Cmax,[8]; NANOSUSPENSION PO 18.4 mg/kg,643 ng/mL
same,bioavailability,"[8]; NANOSUSPENSION PO 18.4 mg/kg, read-out: % F absolute oral bioavailability",47%
same,AUC(0-inf),[8]; NANOSUSPENSION PO 18.4 mg/kg,5220 ng·h/mL
same,half-life,[8]; NANOSUSPENSION PO 18.4 mg/kg,2.5 h
same,AUC(0-inf),[8]; PEG-400 solution IV 5 mg/kg,3560 ng·h/mL
same,clearance,[8]; PEG-400 solution IV 5 mg/kg,23.9 mL/min/kg
same,Vd,[8]; PEG-400 solution IV 5 mg/kg,3 L/kg
same,half-life,[8]; PEG-400 solution IV 5 mg/kg,3.5 h
same,Tmax,[8]; PEG-400 solution PO 20 mg/kg,5 h
same,Cmax,[8]; PEG-400 solution PO 20 mg/kg,774 ng/mL
same,bioavailability,"[8]; PEG-400 solution PO 20 mg/kg, read-out: % F absolute oral bioavailability",49%
same,AUC(0-inf),[8]; PEG-400 solution PO 20 mg/kg,6960 ng·h/mL
same,half-life,[8]; PEG-400 solution PO 20 mg/kg,3 h
same,bioavailability,"[8]; po, nanosuspension and PEG/EtOH/Water vehicles, read-out: absolute oral bioavailability",47 to 49%
same,minimal effective dose,[9],30 mg/kg
same,minimal effective dose,[10],30 mg/kg
same,affinity to NK1 recognition sites,NK1 recognition sites [11],nanamolar affinity
same,total amount in brain,"[12]; IV 4.5 mg/kg, 15 minutes",2.5 µg
same,Brain Conc. (BC),"[12]; IV bolus 4.5 mg/kg in PEG-400/EtOH/Water, 0.25 h, 4.5 mg/kg, 15 min",1448 ± 456 ng/g
same,% Dose in Brain,"[12]; IV bolus 4.5 mg/kg, 0.25 h",0.235 ± 0.051%
same,Amount in Brain,"[12]; IV bolus 4.5 mg/kg, 0.25 h",2711 ± 668 ng
same,% Dose in Brain,"[12]; IV bolus 4.5 mg/kg, 2 h",0.0098%
same,Amount in Brain,"[12]; IV bolus 4.5 mg/kg, 2 h",114 ± 8.6 ng
same,% Dose in Brain,"[12]; IV bolus 4.5 mg/kg, 4 h",0.0033 ± 0.0003%
same,Amount in Brain,"[12]; IV bolus 4.5 mg/kg, 4 h",40 ± 3.4 ng
same,% Dose in Brain,"[12]; IV bolus 4.5 mg/kg, 8 h",0.0078%
same,Amount in Brain,"[12]; IV bolus 4.5 mg/kg, 8 h",9.6 ng
same,% Dose in Brain,"[12]; PO 21.4 mg/kg, 0.25 h",0.00095 ± 0.00053%
same,Amount in Brain,"[12]; PO 21.4 mg/kg, 0.25 h",57 ± 31 ng
same,% Dose in Brain,"[12]; PO 21.4 mg/kg, 2 h",0.00291%
same,Amount in Brain,"[12]; PO 21.4 mg/kg, 2 h",189 ± 156 ng
same,total amount in brain,"[12]; PO 21.4 mg/kg, 2 hours",0.04 µg
same,% Dose in Brain,"[12]; PO 21.4 mg/kg, 4 h",0.0064%
same,Amount in Brain,"[12]; PO 21.4 mg/kg, 4 h",410 ± 333 ng
same,% Dose in Brain,"[12]; PO 21.4 mg/kg, 8 h",0.0013 ± 0.0012%
same,Amount in Brain,"[12]; PO 21.4 mg/kg, 8 h",81 ± 73 ng
same,% Dose in Brain,"[12]; PO 21.4 mg/kg, 12 h",0.00047 ± 0.00017%
same,Amount in Brain,"[12]; PO 21.4 mg/kg, 12 h",30 ng
same,Tmax,"[12]; brain, IV 4.5 mg/kg",0.25 h
same,Tmax,"[12]; brain, PO 21.4 mg/kg",2 h
same,Kp,"[12]; brain, iv, 4.5 mg/kg, IV 4.5 mg/kg, later postdose times, read-out: brain to plasma concentration ratio, steady value",~0.5
same,concentration at 0.25 h,"[12]; brain, iv, 4.5 mg/kg, IV bolus 4.5 mg/kg in PEG-400/EtOH/Water, 0.25 h, read-out: Brain Conc. (BC)",1400 ng/g
same,Kp at 0.25 h,"[12]; brain, iv, 4.5 mg/kg, IV bolus 4.5 mg/kg, 0.25 h, read-out: BC/PC Ratio",1.8
same,Kp at 2 h,"[12]; brain, iv, 4.5 mg/kg, IV bolus 4.5 mg/kg, 2 h, read-out: BC/PC Ratio",0.47 ± 0.11
same,concentration at 2 h,"[12]; brain, iv, 4.5 mg/kg, IV bolus 4.5 mg/kg, 2 h, read-out: Brain Conc. (BC)",57 ± 4.5 ng/g
same,Kp at 4 h,"[12]; brain, iv, 4.5 mg/kg, IV bolus 4.5 mg/kg, 4 h, read-out: BC/PC Ratio",0.47 ± 0.05
same,concentration at 4 h,"[12]; brain, iv, 4.5 mg/kg, IV bolus 4.5 mg/kg, 4 h, read-out: Brain Conc. (BC)",20 ± 1.9 ng/g
same,concentration at 8 h,"[12]; brain, iv, 4.5 mg/kg, IV bolus 4.5 mg/kg, 8 h, N = 1, read-out: Brain Conc. (BC)",4.8 ng/g
same,Kp at 8 h,"[12]; brain, iv, 4.5 mg/kg, IV bolus 4.5 mg/kg, 8 h, read-out: BC/PC Ratio",0.52
same,concentration at 0.25 h,"[12]; brain, po, 21.4 mg/kg, PO 21.4 mg/kg in PEG-400/EtOH/Water, 0.25 h, read-out: Brain Conc. (BC)",31 ± 17 ng/g
same,Kp at 0.25 h,"[12]; brain, po, 21.4 mg/kg, PO 21.4 mg/kg, 0.25 h, read-out: BC/PC Ratio",0.27 ± 0.06
same,Kp at 2 h,"[12]; brain, po, 21.4 mg/kg, PO 21.4 mg/kg, 2 h, read-out: BC/PC Ratio",0.3 ± 0.03
same,concentration at 2 h,"[12]; brain, po, 21.4 mg/kg, PO 21.4 mg/kg, 2 h, read-out: Brain Conc. (BC)",96 ± 79 ng/g
same,Kp at 4 h,"[12]; brain, po, 21.4 mg/kg, PO 21.4 mg/kg, 4 h, read-out: BC/PC Ratio",0.29 ± 0.09
same,concentration at 4 h,"[12]; brain, po, 21.4 mg/kg, PO 21.4 mg/kg, 4 h, read-out: Brain Conc. (BC)",212 ± 168 ng/g
same,Kp at 8 h,"[12]; brain, po, 21.4 mg/kg, PO 21.4 mg/kg, 8 h, read-out: BC/PC Ratio",0.33 ± 0.11
same,concentration at 8 h,"[12]; brain, po, 21.4 mg/kg, PO 21.4 mg/kg, 8 h, read-out: Brain Conc. (BC)",41 ± 38 ng/g
same,Kp at 12 h,"[12]; brain, po, 21.4 mg/kg, PO 21.4 mg/kg, 12 h, read-out: BC/PC Ratio",0.41 ± 0.27
same,concentration at 12 h,"[12]; brain, po, 21.4 mg/kg, PO 21.4 mg/kg, 12 h, read-out: Brain Conc. (BC)",15 ± 5 ng/g
same,penetration into the brain,[12]; following IV administration,fast
same,concentration at 0.25 h,"[12]; plasma, iv, 4.5 mg/kg, IV bolus 4.5 mg/kg, 0.25 h, read-out: Plasma Conc. (PC)",819 ± 87 ng/mL
same,concentration at 2 h,"[12]; plasma, iv, 4.5 mg/kg, IV bolus 4.5 mg/kg, 2 h, read-out: Plasma Conc. (PC)",124 ± 17 ng/mL
same,concentration at 4 h,"[12]; plasma, iv, 4.5 mg/kg, IV bolus 4.5 mg/kg, 4 h, read-out: Plasma Conc. (PC)",43 ± 5.6 ng/mL
same,concentration at 8 h,"[12]; plasma, iv, 4.5 mg/kg, IV bolus 4.5 mg/kg, 8 h, read-out: Plasma Conc. (PC)",5.6 ± 3.3 ng/mL
same,concentration at 12 h,"[12]; plasma, iv, 4.5 mg/kg, IV bolus 4.5 mg/kg, 12 h, read-out: Plasma Conc. (PC)",4 ± 1.1 ng/mL
same,concentration at 0.25 h,"[12]; plasma, po, 21.4 mg/kg, PO 21.4 mg/kg, 0.25 h, read-out: Plasma Conc. (PC)",126 ± 92 ng/mL
same,concentration at 2 h,"[12]; plasma, po, 21.4 mg/kg, PO 21.4 mg/kg, 2 h, read-out: Plasma Conc. (PC)",301 ± 244 ng/mL
same,concentration at 4 h,"[12]; plasma, po, 21.4 mg/kg, PO 21.4 mg/kg, 4 h, read-out: Plasma Conc. (PC)",642 ± 433 ng/mL
same,concentration at 8 h,"[12]; plasma, po, 21.4 mg/kg, PO 21.4 mg/kg, 8 h, read-out: Plasma Conc. (PC)",108 ± 80 ng/mL
same,concentration at 12 h,"[12]; plasma, po, 21.4 mg/kg, PO 21.4 mg/kg, 12 h, read-out: Plasma Conc. (PC)",45 ± 20 ng/mL

# — patent US5998435A, “Use of a tachykinin antagonist for the manufacture of a medicament for the treatment of emesis” (priority 1998, dated 1999)
